Measurements taken from US4997829A, “Penem compounds, and use thereof” (Suntory Limited, priority 1985, dated 1991).

How the values were obtained:
[1] = system: S. aureus Smith; test: Therapeutic effect against experimental infection in mice (ED50); assay type: in vivo, S. aureus; ICR strain male mice; conditions: oral; survival after 6 days, Probit method; 8640 min
Method: (§1) Out of the novel compound obtained according to this invention, SUN 4435 was selected to carry out a treatment experiment with infected animals. As an animal, there were employed ICR strain male mice (5-weeks aged, with an average body weight of 29.1 g), which were infected intraperitoneally with a test microorganism, S. aureus Smith or E. coli KC-14, and 24 hours later, treated by subcutaneous or oral application of SUN 4435 or SUN 5555. ED50 values were determined from the survival rates found after 6 days in accordance with the Probit method.

[2] = system: E. coli KC-14; test: as above; assay type: in vivo, E. coli; ICR strain male mice; conditions: oral; survival after 6 days, Probit method; 8640 min
Method: as §1

[3] = Acute toxicity test; assay type: in vivo; conditions: intravenous
Method: Out of the novel compounds obtained according to this invention, SUN 4435 and SUN 5555 were selected to carry out an acute toxicity test. As an animal, there were employed ICR strain mice (4-weeks aged), which were treated by oral and intravenous application of the compounds.

[4] = system: A. calcoaceticus; test: Sensitivity of clinically isolated strains; assay type: cell-based; conditions: Acinetobacter calcoaceticus; clinical isolates
Method: (§2) With regard to the novel compound, SUN 5555, as obtained according to this invention, sensitivities were determined toward the S. aureus strain 87, E. coli strain 88, Klebsiella sp. strain 63, P. mirabillis strain 30, P. vulgaris strain 41, M. morganii strain 29, P. rettgeri strain 17, S. marcescens strain 88, A. calcoaceticus strain 57 and H. influenza strain 25. The determinations were carried out in accordance with the minimal growth inhibitory concentration measuring method as specified by The Chemotherapeutic Society of Japan, with the results being shown […], respectively.

[5] = system: E. coli; test: Sensitivity of clinically isolated strains; assay type: cell-based; conditions: Escherichia coli; clinical isolates
Method: as §2

[6] = system: H. influenza; test: Sensitivity of clinically isolated strains; assay type: cell-based; conditions: clinical isolates
Method: as §2

[7] = system: Klebsiella sp.; test: Sensitivity of clinically isolated strains; assay type: cell-based; conditions: clinical isolates
Method: as §2

[8] = system: M. morganii; test: Sensitivity of clinically isolated strains; assay type: cell-based; conditions: Morganella morganii; clinical isolates
Method: as §2

[9] = system: Methycillin-resistant S. aureus; test: Sensitivity of clinically isolated strains; assay type: cell-based; conditions: Staphylococcus aureus
Method: as §2

[10] = system: P. mirabillis; test: Sensitivity of clinically isolated strains; assay type: cell-based; conditions: clinical isolates
Method: as §2

[11] = system: P. rettgeri; test: Sensitivity of clinically isolated strains; assay type: cell-based; conditions: Providencia rettgeri; clinical isolates
Method: as §2

[12] = system: P. vulgaris; test: Sensitivity of clinically isolated strains; assay type: cell-based; conditions: Proteus vulgaris
Method: as §2

[13] = system: S. aureus; test: Sensitivity of clinically isolated strains; assay type: cell-based; conditions: Staphylococcus aureus; clinical isolates
Method: as §2

[14] = system: S. marcescens; test: Sensitivity of clinically isolated strains; assay type: cell-based; conditions: Serratia marcescens; clinical isolates
Method: as §2

[15] = system: S. pyogenenes; test: Sensitivity of clinically isolated strains; assay type: cell-based; conditions: clinical isolates
[16] = literature; cited from earlier work

In the case of `C[C@@H](O)[C@H]1C(=O)N2C(C(=O)O)=C([C@H]3CCCO3)S[C@H]12` [SUN 5555, Sodium (1'R, 2"R, 5R, 6S)-6-(1'-hydroxyethyl)-2-(2"-tetrahydofuranyl)penem-3-carboxylate], the ED50 [1] is reported as 5.6 mg/kg, the ED50 [2] is reported as 13.9 mg/kg and the survival ([3]; 3 g/kg, two male and female mice) is reported as “survived”. For the same molecule, the survival ([3]; 5 g/kg, five male mice) was “one out of five male mice”, the MIC50 [4] was 6.25 µg/mL and the MIC90 [4] was 25 µg/mL. For the same molecule, the MIC50 [5] was 0.78 µg/mL, the MIC90 [5] was 1.56 µg/mL and the MIC50 [6] was 0.39 µg/mL. For the same molecule, the MIC90 [6] was 0.78 µg/mL, the MIC50 [7] was 0.78 µg/mL and the MIC90 [7] was 1.56 µg/mL. For the same molecule, the MIC50 [8] was 1.56 µg/mL, the MIC90 [8] was 6.25 µg/mL and the MIC50 [9] was 1.56 µg/mL. It also gave an MIC90 [9] of over 100 µg/mL, an MIC50 [10] of 3.13 µg/mL and an MIC90 [10] of 6.25 µg/mL. It also gave an MIC50 [11] of 1.56 µg/mL, an MIC90 [11] of 6.25 µg/mL and an MIC50 [12] of 3.13 µg/mL. The MIC90 [12] was 6.25 µg/mL, the MIC50 [13] was 0.1 µg/mL and the MIC90 [13] was 0.2 µg/mL. It also gave an MIC50 [14] of 1.56 µg/mL, an MIC90 [14] of 6.25 µg/mL and an MIC50 [15] of under 0.025 µg/mL. The MIC90 [15] was under 0.025 µg/mL.
For `CCSC1=C(C(=O)O)N2C(=O)[C@H]([C@@H](C)O)[C@H]2S1` [Sch 29482], the activity [16] is listed as “strong activity”.
For `C[C@@H](O)[C@@H]1C(=O)N2C(C(=O)O)=C(SCCN)S[C@H]12` [1-thiathienamycin], the activity [16] is given as “strong activity”.
